Laboratory results published in patent US11407999B2, “Pharmaceutical composition for preventing or treating angiogenesis relating ocular diseases comprising inhibitors of MCT expression or activity” (Seoul National University R&DB Foundation, priority 2019, dated 2022).

Tests used:
THP-1 macrophages = test: VEGF expression/secretion in lactic acid-treated PMA-differentiated THP-1 macrophages (real-time PCR, ELISA); assay type: cell-based, human
Experimental: (§1) HUVEC (Human umbilical vein endothelial cell; Lonza Ltd., Basel, Switzerland) was cultured in EGM-2 (endothelial growth medium-2; Lonza). A human acute monocytic leukemia THP-1 cell line was maintained in RPMI medium containing 10% FBS (Gibco). 15 ng/ml PMA (Sigma-Aldrich Corp., St. Louis, Mo., USA) and THP-1 cells were cultured under the conditions of 37° C., 5% CO2 for 2 days, and the THP-1 cells were differentiated into macrophages.
The confluent ARPE-19 monolayer cells maintained in the 24-well plate were incubated with 10 mM L(+)-lactic acid (Sigma-Aldrich Corp.) under presence or absence of α-CHC (α-cyano-4-hydroxycinnamic acid; Sigma-Aldrich) which was an MCT inhibitor (monocarboxylate transporter inhibitor) of 3 mM for a specified period. HUVEC was inoculated to a 24-well plate at a density of 1×10^5/well, and when cells reached 60% to 70% confluence, cells were exposed to 10 mM L(+)-lactic acid under presence or absence of 3 mM α-CHC. The THP-1 cells were inoculated in a 24-well plate at a density of 3)(10^5/well, and they were differentiated into macrophages by PMA treatment, and then were cultured with 20 mM L(+)-lactic acid under presence or absence of 3 mM α-CHC.
In addition, the THP-1 cells were inoculated to a 24-well plate at a density of 3)(10^5/well, and were differentiated into macrophages by PMA treatment, and then were cultured with 20 mM L(+)-lactic acid, by treating SR13800 (Tocris Bioscience, Bristol, UK) at a concentration of 0.5 to 2 μM and AR-C155858 at a concentration of 300 to 500 nM, respectively, thereto.
Cells were treated with lactic acid for 24 hours. The medium was collected and centrifuged at 587 g for 5 minutes and particles were removed and stored at −80° C. before performing ELISA.
(§2) The retina and RPE-choroid tissue were isolated from the control (naive; normal group in which CNV was not induced) CNV mouse (on day 3 after laser irradiation) or diabetic retinopathy mouse (on week 20 after STZ administration), and the isolated tissue was homogenized in ice-cold RIPA lysis buffer (Thermo Scientific, Rockford, Ill., USA) containing 1% protease inhibiting cocktail and 1% phosphatase inhibiting cocktail (GenDEPOT, Katy, Tex., USA). After centrifuging at 15,871 g for 15 minutes, the isolated supernatant was used for ELISA analysis. Secretion of VEGF was measured using ELISA Duoset system (R & D Systems, Minneapolis, Minn., USA) according to the manufacturer's instructions.
(§3) Total RNA was extracted in cells using trizole (Invitrogen, Carlsbad, Calif., USA) according to the manufacturer's instructions. RNA concentration/quality was evaluated using a nanodrop spectrophotometer (NanoDrop Technology, Wilmington, Del., USA). An equal amount of RNA was under reverse transcription to cDNA using a reverse transcription kit (Enzynomics, Daejeon, Korea), and quantitative real-time PCR (ABI PRISM 7900, Applied Biosystems) was performed using SYBR Green PCR Master Mix (Applied Biosystems, Foster City, Calif., USA) to measure gene expression. In 12 minutes at 95° C., a cycle consisting of 10 seconds at 95° C. and 30 seconds at 60° C. was performed 50 times.
Relative mRNA expression of each sample was standardized by β-actin and RPL37A, and statistics were analyzed using Student's unpaired t-test. The sequences of primers used for amplification were disclosed in the following Table 1.

ARPE-19 = test: VEGF expression in lactic acid-treated ARPE-19 retinal pigment epithelium cells; assay type: cell-based, human; conditions: ARPE-19, 10 mM lactic acid vs untreated control; FIG. 4a
Experimental: Human APRE-19 cells were obtained from ATCC (Manassas, Va., USA), and were cultured in DMEM (Dulbecco's modified Eagle's medium)/F12 medium (1:1, USA) supplemented by 10% bovine fetal serum (FBS) (Gibco, Carlsbad, Calif.), 1% penicillin-streptomycin (Gibco) and 2 mM L-glutamine (Gibco) in a wet incubator under the conditions of 37° C., 5% CO2. For ARPE-19 monolayer culture, ARPE-19 cells were inoculated in a 24-well tissue culture plate (1.53105 cells per well; Corning, Corning, N.Y., USA) and were maintained in DMEM/F12 medium in which serum was reduced (1% FBS). Confluent monolayer culture having TER (Transepithelial resistance) of 40 Ωcm2 or more was used in the experiment. […]
as §3, with “In 12 minutes at 95° C., a cycle consisting of 10 seconds at 95° C. and 30 seconds at 60° C. was performed 50 times.” left out

HUVEC [1] = test: VEGF expression in lactic acid-treated HUVEC; assay type: cell-based, human; conditions: 10 mM lactic acid vs untreated control, FIG. 4b
Experimental: as §1
The confluent ARPE-19 monolayer cells maintained in the 24-well plate were incubated with 10 mM L(+)-lactic acid (Sigma-Aldrich Corp.) under presence or absence of α-CHC (α-cyano-4-hydroxycinnamic acid; Sigma-Aldrich) which was an MCT inhibitor (monocarboxylate transporter inhibitor) of 3 mM for a specified period. […]
as §3, with “In 12 minutes at 95° C., a cycle consisting of 10 seconds at 95° C. and 30 seconds at 60° C. was performed 50 times.” left out

HUVEC [2] = test: Tube formation assay in HUVEC with macrophage conditioned medium; assay type: cell-based, human; conditions: for tube formation: FIG. 6a
Experimental: Matrigel (Corning) with reduced growth factors was thawed at 4° C. overnight. Each well of the 24-well plate cooled in advance was coated with […] and incubated at 37° C. for 40 minutes. HUVEC (3×10^4 cells) was suspended in EGM-2 medium of 100 μl, and aliquoted in a macrophage conditioned medium of 400 μl, and cultured under the condition of 37° C., 5% CO2 for 12 hours. The macrophage conditioned medium means that 20 mM lactic acid is treated for 24 hours by stimulating macrophages (or macrophages pretreated for 1 hour with α-CHC) and the medium was replaced and then the supernatant was collected.
Endothelial cell tube formation was visualized by Calcein AM (Corning) and then imaging was conducted using Leica CTR6000 fluorescence microscope (Wetzlar, Germany). The number of the capillary-like structure was quantified by manual counting of low-power field (×10). For each well, 5 independent fields were evaluated, and the mean branch number per field (magnification, ×10) was measured.

CNV mice [3] = test: Flow cytometry for VEGF in macrophages of CNV mice after intravitreal injection; assay type: in vivo, mouse; conditions: intravitreal 3 mM α-CHC 2 μl on day 1 after laser, vs vehicle group, FIG. 8a, 8b
Experimental: (§4) Female C57BL/6J mice aged 7 to 8 weeks were anesthetized by intraperitoneally injecting a mixture of Ketamine 100 mg/kg and Xylazine 10 mg/kg, and by dropping 1% tropicamide (Alcon Laboratories Inc., Fort Worth, Tex., USA) in eyes, the pupils of the mice were expanded. Laser was irradiated in a direction of 3, 6, 9 and 12 o'clock direction of the 2 disc diameter in an optic disc by 831-nm 106 diode laser photocoagulation method (75 μm spot size, 0.1 sec duration time, 120 mW). Bubbling or pop sensing by laser photocoagulation was considered a successful rupture of the Bruch membrane.
(§5) To evaluate the anti-angiogenic effect by blocking lactic acid intake in macrophages, on day 1 after laser irradiation, when the macrophages began to infiltrate the laser irradiation site (image area), 3 mM α-CHC 2 μl or PBS (vehicle) 2 μl dissolved in PBS was intravitreally injected, and it was used in the following experiment.
After laser irradiation, on day 1, 3, 7, 14 and 21, laser-irradiated eyes were extracted. […]
Cells labeled using LSR-II cytometer (BD Biosciences, San Jose, Calif., USA) were analyzed and data were analyzed using FlowJo software (version 7.6.2, Ashland, Oreg., USA).

CNV mice [4] = test: Immunohistological staining for F4/80 and VEGF in RPE-choroid of CNV mice; assay type: in vivo, mouse; conditions: day 3 after laser irradiation
Experimental: as §4, §5
Laser was irradiated to mice by the method of Referential example 2, and on day 3, eyes were extracted from mice, and fixed in 4% paraformaldehyde for 1 hour. After removing the retina, the RPE-choroid tissue was cultured with rat anti-mouse F4/80 (Bio-Rad, Richmond, Calif., USA) and APC conjugated anti-mouse VEGF (C-1; Santa Cruz Biotechnology, Inc.) at […] overnight. […] The regions of infiltrated macrophages and secreted VEGF were measured using ImageJ software.

CNV mice [5] = test: ELISA of VEGF protein in RPE/choroid and retina of CNV mice; assay type: in vivo, mouse; conditions: RPE/choroid tissue of CNV mice, vs vehicle group, FIG. 8e
Experimental: as §4, with “membrane. […]” for “membrane.”
as §2, with “After centrifuging at 15,871 g for 15 minutes, the isolated supernatant was used for ELISA analysis.” left out

CNV mice [6] = test: Quantification of choroidal neovascularization (IB4 staining) in CNV mice; assay type: in vivo, mouse; conditions: RPE-choroid tissue of CNV mice, day 7 after laser irradiation; vehicle group 141,472.9±49,186; FIG. 8f, 8g
Experimental: as §4, with “membrane. […]” for “membrane.”
For evaluation of CNV, on day 1 after laser irradiation, PBS or α-CHC was injected in eyes, and in 6 days (on day 7 after laser irradiation), the RPE-choroid tissue isolated from the eyes of CNV mice was immunohistologically stained with Alexa-Fluor 594-conjugated IB4 (isolectin B4) (Molecular Probes) to visualize CNV. Images obtained by Olympus FV1000 Confocal Scanning Scope were treated in IMARIS imaging software (Bitplane, Zurich, Switzerland) to quantify the IB4-positive CNV amount.

[7] = test system: diabetic retinopathy-induced mice; test: IB4 staining of retina of STZ diabetic retinopathy-induced mice (bleeding and angiogenesis); assay type: in vivo, mouse; conditions: intraocular (intravitreal) injection, FIG. 14
Experimental: (§6) After administering STZ (streptozotocin, Sigma) to the peritoneal cavity of male C57BL6/J mice aged 7 to 8 weeks, whether high blood glucose was induced was confirmed by measuring blood glucose in 2 days. Mice of which blood glucose was induced to 400 mg/dL or more were selected, and used in the following experiment. From about 10 weeks after administering STZ, diabetic retinopathy began to appear.
(§7) At about day 140 after administrating STZ to the diabetic retinopathy-induced mice, 3 mM a-CHC 2 μl dissolved in PBS, 2 μM SR13800 2 μl dissolved in PBS, or PBS (vehicle) […] was intravitreally injected and it was used in the following experiment.
Eyes of mice in which diabetes was induced by STZ, prepared by the method of Referential example 3 were extracted and fixed in 4% paraformaldehyde for 1 hour. The anterior segment was removed, and then the retinal tissue was cultured with FITC-conjugated isolectin B4 (Sigma) at 4° C. overnight. After washing with PBS for 10 minutes 10 times using an orbital shaker at a room temperature, the stained tissue was examined under Olympus FV1000 Confocal Scanning Scope.

[8] = test system: diabetic retinopathy-induced mice; test: ELISA of VEGF protein in retina and RPE-choroid of STZ diabetic retinopathy-induced mice; assay type: in vivo, mouse; conditions: intravitreal 2 μM SR13800 2 μl, FIG. 13
Experimental: as §6, §7, §2

Cc1n[nH]c(C)c1Cc1sc2c(c1C(=O)N1C[C@H](O)CO1)c(=O)n(C)c(=O)n2CC(C)C [AR-C155858]
VEGF expression increased by lactic acid (THP-1 macrophages; THP-1 macrophages, 20 mM lactic acid plus AR-C155858 300 to 500 nM, FIG. 9b): does not show significant changes

CC(O)C(=O)O (stereo not drawn) [lactic acid, L(+)-lactic acid]
increase of VEGF expression after treatment of lactic acid (THP-1 macrophages; PMA-differentiated THP-1 macrophages, 20 mM lactic acid vs untreated control, FIG. 4c): ≥ 3 times | increase of VEGF secretion after stimulating with lactic acid (THP-1 macrophages; THP-1 macrophages, 24 hours, FIG. 5): about 5 times | gene transcriptome and protein expression for VEGF (ARPE-19): did not change significantly | gene transcriptome and protein expression for VEGF (HUVEC [1]): did not change significantly | increase of number of branches (HUVEC [2]; HUVEC with supernatant of lactic acid-stimulated macrophages vs lactic acid untreated group, FIG. 6b): about 5 times | tube formation (HUVEC [2]; HUVEC with supernatant of macrophages stimulated with 20 mM lactic acid): significantly increased

N#CC(=Cc1ccc(O)cc1)C(=O)O [α-CHC, α-cyano-4-hydroxycinnamic acid]
VEGF secretion (VEGF expression) (THP-1 macrophages; THP-1 macrophages, lactic acid plus α-CHC vs only lactic acid, dependent on inhibitor concentration, FIG. 5): reduced | number of branches (HUVEC [2]; HUVEC with supernatant of macrophages pretreated with α-CHC then lactic acid, vs only lactic acid, FIG. 6b): significantly reduced | tube formation (HUVEC [2]; HUVEC with supernatant of macrophages pretreated with α-CHC then lactic acid): reduced | VEGF expression (relative mean fluorescence intensity) (CNV mice [3]): significantly reduced | VEGF positive region in the F4/80 stained macrophage region (CNV mice [4]; intravitreal injection, vehicle group 523,378±165,071, FIG. 8c, 8d): 383,738±196,716 μm2 | area of infiltrated macrophages (CNV mice [4]; vs vehicle group, FIG. 8d): no significant difference | amount of VEGF protein increased by CNV induction (CNV mice [5]): significantly reduced | IB4-positive endothelial cells (CNV amount) (CNV mice [6]): 74,160.6±12,339.5 μm^3 | bleeding and angiogenesis increased in the diabetic retinopathy model [7]: reduced

CC(C)Cc1nn(C)c(=O)c2c(SCCCO)n(Cc3cccc4ccccc34)cc12 [SR13800]
VEGF secretion (THP-1 macrophages; THP-1 macrophages, 20 mM lactic acid plus SR13800 0.5 to 2 μM vs only lactic acid, dependent on inhibitor concentration, FIG. 9a): reduced | VEGF expression in the RPE-choroid tissue ([8]; RPE-choroid tissue): did not affect | VEGF expression increased in the retinal tissue by induction of diabetic retinopathy ([8]; retinal tissue): significantly reduced | bleeding and angiogenesis increased in the diabetic retinopathy model [7]: significantly reduced
